Test results taken from patent publication US9784752B2, “Venlafaxine assay” (Randox Laboratories, Limited, priority 2012, dated 2017).
≈ marks a conversion by molar mass, not a printed value.

Test system: polyclonal antibody raised to Immunogen II
Test: Competitive biochip immunoassay (Evidence Investigator) with Hapten-1 HRP detecting agent
Type: binding, sheep
Conditions: for % Cross-reactivity: %CR calculated from IC50 ratio x 100; for IC50: concentration causing 50% displacement of signal, competition with Hapten-1 HRP for immobilised polyclonal antibody, 30 minutes at 30° C.
Description: A semi-automated Evidence Investigator analyser (Randox Laboratories Ltd., Crumlin, UK) was used as the platform for a biochip assay for the detection of venlafaxine and O-desmethylvenlafaxine. Immunogen II was administered to adult sheep on a monthly basis to provide target-specific polyclonal antisera. IgG was extracted from the antisera, and the purified antibody was immobilised on a biochip (9 mm×9 mm). The assay is based on competition for binding sites of a polyclonal antibody between Hapten-1HRP detecting agent (Example 10) and venlafaxine and O-desmethylvenlafaxine and potential cross-reactants. The antibody was immobilised and stabilised onto the biochip surface as previously described (Fitzgerald et al., 2005). Assay diluent (155 μL), calibrator/venlafaxine and O-desmethylvenlafaxine or potential cross-reactant (25 μL) followed by Hapten-1 HRP detecting agent (120 μL) were added to the appropriate biochip. The biochips were then incubated for 30 minutes at 30° C. on a thermoshaker set at 370 rpm. The biochips were then subjected to 2 quick wash cycles using the wash buffer provided, followed by 4×2 minute wash cycles. 250 μL of signal (1:1 luminol+peroxide, v/v) was then added to each biochip, and after 2 minutes the biochip carrier was imaged in the Evidence Investigator analyser. Calibration curves were generated and these were used to determine the sensitivity and specificity of the immunoassay for venlafaxine, O-desmethylvenlafaxine and potential cross-reactants.
Table 1, cross-reactivity being calculated according to the following formula: %CR=IC50,O-desmethylvenlafaxine/IC50,CR×100 where % CR is the percentage cross-reactivity, IC50, O-desmethylvenlafaxine is the concentration of O-desmethylvenlafaxine which causes 50% displacement of signal and IC50, CR is the concentration of venlafaxine or potential cross-reactant that causes 50% displacement of signal.

SMILES | % Cross-reactivity | IC50
COc1cccc(C2(O)CCCCC2CN(C)C)c1 (centres unmarked) [Tramadol] | <5.7% | 
CN(C)C[C@H]1CCCC[C@]1(O)c1cccc(O)c1 [O-Desmethyltramadol] | <5.7% | >320 ng/mL
CN(C)CC(c1ccc(O)cc1)C1(O)CCCCC1 (racemic) [O-Desmethylvenlafaxine, (RS)-1-[2-(dimethylamino)-1-(4-hydroxyphenyl)ethyl]cyclohexanol] | 48.4% | 37.86 ng/mL (≈ 0.144 µM)
CCOC(=O)C1(c2ccccc2)CCN(C)CC1 [Meperidine] | <5.7% | 
COc1ccc(C(CN(C)C)C2(O)CCCCC2)cc1 (racemic) [Venlafaxine, (RS)-1-[2-(dimethylamino)-1-(4-methoxyphenyl)ethyl]cyclohexanol] | 100% | 18.31 ng/mL (≈ 0.066 µM)
CNCC1CCCCC1(O)c1cccc(OC)c1 (centres unmarked) [N-Desmethyltramadol] | <5.7% | >320 ng/mL
c1ccc(C2(N3CCCCC3)CCCCC2)cc1 [PCP] | <5.7% | >320 ng/mL
COC(=O)C(c1ccccc1)C1CCCCN1 (centres unmarked) [Methylphenidate] | <5.7% | >320 ng/mL
